# Assay results: PubChem BioAssay (NCI)
#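 Dose response: 5 concentrations. Exposure: 48 h. Format: 96-well plates. Endpoint: linear interpolation; highest concentration if not reached. Abbreviation: GI50, concentration required for 50% inhibition of growth. Definition used: TGI = concentration required for complete inhibition of growth.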
# Legend:
# Test in all cases: growth of human tumour cells (NCI), 48 h
# 786-0 renal = system: 786-0 renal
# A498 renal = system: A498 renal
# A549 NSCLC = system: A549 NSCLC
# ACHN renal = system: ACHN renal
# BT-549 breast = system: BT-549 breast
# CAKI-1 renal = system: CAKI-1 renal
# CCRF-CEM leukemia = system: CCRF-CEM leukemia
# COLO 205 colon = system: COLO 205 colon
# DU-145 prostate = system: DU-145 prostate
# EKVX NSCLC = system: EKVX NSCLC
# HCC-2998 colon = system: HCC-2998 colon
# HCT-116 colon = system: HCT-116 colon
# HCT-15 colon = system: HCT-15 colon
# HL-60(TB) leukemia = system: HL-60(TB) leukemia
# HOP-62 NSCLC = system: HOP-62 NSCLC
# HOP-92 NSCLC = system: HOP-92 NSCLC
# HS 578T breast = system: HS 578T breast
# HT29 colon = system: HT29 colon
# IGROV1 ovarian = system: IGROV1 ovarian
# K-562 leukemia = system: K-562 leukemia
# KM12 colon = system: KM12 colon
# LOX IMVI melanoma = system: LOX IMVI melanoma
# M14 melanoma = system: M14 melanoma
# MCF7 breast = system: MCF7 breast
# MDA-MB-231 breast = system: MDA-MB-231 breast
# MDA-MB-435 = system: MDA-MB-435
# MOLT-4 leukemia = system: MOLT-4 leukemia
# NCI-H226 lung = system: NCI-H226 lung
# NCI-H23 lung = system: NCI-H23 lung
# NCI-H460 lung = system: NCI-H460 lung
# NCI-H522 lung = system: NCI-H522 lung
# NCI/ADR-RES ovarian = system: NCI/ADR-RES ovarian
# OVCAR-3 ovarian = system: OVCAR-3 ovarian
# OVCAR-4 ovarian = system: OVCAR-4 ovarian
# OVCAR-5 ovarian = system: OVCAR-5 ovarian
# OVCAR-8 ovarian = system: OVCAR-8 ovarian
# PC-3 prostate = system: PC-3 prostate
# RPMI-8226 leukemia = system: RPMI-8226 leukemia
# RXF 393 renal = system: RXF 393 renal
# SF-268 CNS = system: SF-268 CNS
# SF-295 CNS = system: SF-295 CNS
# SF-539 CNS = system: SF-539 CNS
# SK-MEL-2 melanoma = system: SK-MEL-2 melanoma
# SK-MEL-28 melanoma = system: SK-MEL-28 melanoma
# SK-MEL-5 melanoma = system: SK-MEL-5 melanoma
# SK-OV-3 ovarian = system: SK-OV-3 ovarian
# SN12C renal = system: SN12C renal
# SNB-19 CNS = system: SNB-19 CNS
# SNB-75 CNS = system: SNB-75 CNS
# SR leukemia = system: SR leukemia
# SW-620 colon = system: SW-620 colon
# T-47D breast = system: T-47D breast
# TK-10 renal = system: TK-10 renal
# U251 CNS = system: U251 CNS
# UACC-257 melanoma = system: UACC-257 melanoma
# UACC-62 melanoma = system: UACC-62 melanoma
# UO-31 renal = system: UO-31 renal
compound,measurement,setting,value
Nc1ccc2c(c1)Cc1cc(Cl)c(Cl)cc1-2,GI50,786-0 renal,> 100 µM
same,TGI,786-0 renal,> 100 µM
same,GI50,A498 renal,4.78 µM
same,TGI,A498 renal,> 100 µM
same,GI50,A549 NSCLC,7.72 µM
same,TGI,A549 NSCLC,> 100 µM
same,GI50,ACHN renal,7.06 µM
same,TGI,ACHN renal,> 100 µM
same,GI50,BT-549 breast,> 100 µM
same,TGI,BT-549 breast,> 100 µM
same,GI50,CAKI-1 renal,3.76 µM
same,TGI,CAKI-1 renal,> 100 µM
same,GI50,CCRF-CEM leukemia,7.73 µM
same,TGI,CCRF-CEM leukemia,> 100 µM
same,GI50,COLO 205 colon,22.2 µM
same,TGI,COLO 205 colon,> 100 µM
same,GI50,DU-145 prostate,6.24 µM
same,TGI,DU-145 prostate,> 100 µM
same,GI50,EKVX NSCLC,1.94 µM
same,TGI,EKVX NSCLC,8.82 µM
same,GI50,HCC-2998 colon,9.19 µM
same,TGI,HCC-2998 colon,> 100 µM
same,GI50,HCT-116 colon,6.81 µM
same,TGI,HCT-116 colon,> 100 µM
same,GI50,HCT-15 colon,6.22 µM
same,TGI,HCT-15 colon,> 100 µM
same,GI50,HL-60(TB) leukemia,55 µM
same,TGI,HL-60(TB) leukemia,> 100 µM
same,GI50,HOP-62 NSCLC,> 100 µM
same,TGI,HOP-62 NSCLC,> 100 µM
same,GI50,HOP-92 NSCLC,97.9 µM
same,TGI,HOP-92 NSCLC,> 100 µM
same,GI50,HS 578T breast,5.79 µM
same,TGI,HS 578T breast,> 100 µM
same,GI50,HT29 colon,> 100 µM
same,TGI,HT29 colon,> 100 µM
same,GI50,IGROV1 ovarian,17.7 µM
same,TGI,IGROV1 ovarian,> 100 µM
same,GI50,K-562 leukemia,> 100 µM
same,TGI,K-562 leukemia,> 100 µM
same,GI50,KM12 colon,7.05 µM
same,TGI,KM12 colon,> 100 µM
same,GI50,LOX IMVI melanoma,65.6 µM
same,TGI,LOX IMVI melanoma,> 100 µM
same,GI50,M14 melanoma,3.55 µM
same,TGI,M14 melanoma,> 100 µM
same,GI50,MCF7 breast,0.562 µM
same,TGI,MCF7 breast,> 100 µM
same,GI50,MDA-MB-231 breast,6.39 µM
same,TGI,MDA-MB-231 breast,> 100 µM
same,GI50,MDA-MB-435,1.77 µM
same,TGI,MDA-MB-435,4.51 µM
same,GI50,MOLT-4 leukemia,> 100 µM
same,TGI,MOLT-4 leukemia,> 100 µM
same,GI50,NCI-H226 lung,> 100 µM
same,TGI,NCI-H226 lung,> 100 µM
same,GI50,NCI-H23 lung,> 100 µM
same,TGI,NCI-H23 lung,> 100 µM
same,GI50,NCI-H460 lung,5.12 µM
same,TGI,NCI-H460 lung,> 100 µM
same,GI50,NCI-H522 lung,> 100 µM
same,TGI,NCI-H522 lung,> 100 µM
same,GI50,NCI/ADR-RES ovarian,62.2 µM
same,TGI,NCI/ADR-RES ovarian,> 100 µM
same,GI50,OVCAR-3 ovarian,3.17 µM
same,TGI,OVCAR-3 ovarian,87.8 µM
same,GI50,OVCAR-4 ovarian,> 100 µM
same,TGI,OVCAR-4 ovarian,> 100 µM
same,GI50,OVCAR-5 ovarian,> 100 µM
same,TGI,OVCAR-5 ovarian,> 100 µM
same,GI50,OVCAR-8 ovarian,> 100 µM
same,TGI,OVCAR-8 ovarian,> 100 µM
same,GI50,PC-3 prostate,> 100 µM
same,TGI,PC-3 prostate,> 100 µM
same,GI50,RPMI-8226 leukemia,57.6 µM
same,TGI,RPMI-8226 leukemia,> 100 µM
same,GI50,RXF 393 renal,6.07 µM
same,TGI,RXF 393 renal,> 100 µM
same,GI50,SF-268 CNS,> 100 µM
same,TGI,SF-268 CNS,> 100 µM
same,GI50,SF-295 CNS,2.25 µM
same,TGI,SF-295 CNS,7.15 µM
same,GI50,SF-539 CNS,57.3 µM
same,TGI,SF-539 CNS,> 100 µM
same,GI50,SK-MEL-2 melanoma,> 100 µM
same,TGI,SK-MEL-2 melanoma,> 100 µM
same,GI50,SK-MEL-28 melanoma,> 100 µM
same,TGI,SK-MEL-28 melanoma,> 100 µM
same,GI50,SK-MEL-5 melanoma,8.17 µM
same,TGI,SK-MEL-5 melanoma,> 100 µM
same,GI50,SK-OV-3 ovarian,8.03 µM
same,TGI,SK-OV-3 ovarian,> 100 µM
same,GI50,SN12C renal,11.9 µM
same,TGI,SN12C renal,> 100 µM
same,GI50,SNB-19 CNS,5.96 µM
same,TGI,SNB-19 CNS,> 100 µM
same,GI50,SNB-75 CNS,67.8 µM
same,TGI,SNB-75 CNS,> 100 µM
same,GI50,SR leukemia,26.9 µM
same,TGI,SR leukemia,> 100 µM
same,GI50,SW-620 colon,5.43 µM
same,TGI,SW-620 colon,> 100 µM
same,GI50,T-47D breast,> 100 µM
same,TGI,T-47D breast,> 100 µM
same,GI50,TK-10 renal,> 100 µM
same,TGI,TK-10 renal,> 100 µM
same,GI50,U251 CNS,5.56 µM
same,TGI,U251 CNS,> 100 µM
same,GI50,UACC-257 melanoma,> 100 µM
same,TGI,UACC-257 melanoma,> 100 µM
same,GI50,UACC-62 melanoma,12.8 µM
same,TGI,UACC-62 melanoma,> 100 µM
same,GI50,UO-31 renal,6.01 µM
same,TGI,UO-31 renal,> 100 µM
